#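 How tested: cells in 96-well plates exposed to compound for 48 hours at five concentrations. GI50 is the concentration that inhibits growth by half.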 The source made the active and inactive calls. No stated cut-off is given here; in the data, active = GI50 up to about 1.1 µM and inactive = higher.
# How the values were obtained:
# Assay in all cases: inhibition of tumour cell growth, NCI panel, 48 h
# [1] = tested on: 786-0
# [2] = tested on: A498
# [3] = tested on: A549
# [4] = tested on: ACHN
# [5] = tested on: BT-549
# [6] = tested on: CAKI-1
# [7] = tested on: CCRF-CEM
# [8] = tested on: COLO 205
# [9] = tested on: DU-145
# [10] = tested on: EKVX
# [11] = tested on: HCC 2998
# [12] = tested on: HCT-116
# [13] = tested on: HCT-15
# [14] = tested on: HL-60
# [15] = tested on: HOP-62
# [16] = tested on: HOP-92
# [17] = tested on: HT-29
# [18] = tested on: Hs-578T
# [19] = tested on: IGROV-1
# [20] = tested on: K562
# [21] = tested on: KM12
# [22] = tested on: LOX IMVI
# [23] = tested on: M14
# [24] = tested on: MCF7
# [25] = tested on: MDA-MB-231
# [26] = tested on: MDA-MB-435
# [27] = tested on: MDA-N
# [28] = tested on: MOLT-4
# [29] = tested on: Malme-3M
# [30] = tested on: NCI-H226
# [31] = tested on: NCI-H23
# [32] = tested on: NCI-H460
# [33] = tested on: NCI-H522
# [34] = tested on: NCI/ADR-RES
# [35] = tested on: OVCAR-3
# [36] = tested on: OVCAR-4
# [37] = tested on: OVCAR-5
# [38] = tested on: OVCAR-8
# [39] = tested on: PC-3
# [40] = tested on: RPMI-8226
# [41] = tested on: RXF 393
# [42] = tested on: SF-268
# [43] = tested on: SF-295
# [44] = tested on: SF-539
# [45] = tested on: SK-MEL-28
# [46] = tested on: SK-MEL-2
# [47] = tested on: SK-MEL-5
# [48] = tested on: SK-OV-3
# [49] = tested on: SN12C
# [50] = tested on: SNB-19
# [51] = tested on: SNB-75
# [52] = tested on: SR
# [53] = tested on: SW-620
# [54] = tested on: T47D
# [55] = tested on: TK-10
# [56] = tested on: U-251
# [57] = tested on: UACC-257
# [58] = tested on: UACC-62
# [59] = tested on: UO-31
smiles,measurement,setting,value
Oc1ccc(/C=C\c2nnc(/C=C\c3ccc(O)c(O)c3)s2)cc1O,GI50,[1],5.97 µM (inactive)
same,GI50,[2],9.16 µM (inactive)
same,GI50,[3],6.31 µM (inactive)
same,GI50,[4],3.69 µM (inactive)
same,GI50,[5],7.19 µM (inactive)
same,GI50,[6],5.14 µM (inactive)
same,GI50,[7],0.179 µM (active)
same,GI50,[8],8.26 µM (inactive)
same,GI50,[9],7.05 µM (inactive)
same,GI50,[10],16.6 µM (inactive)
same,GI50,[11],8.32 µM (inactive)
same,GI50,[12],3.26 µM (inactive)
same,GI50,[13],3.85 µM
same,GI50,[14],0.853 µM (active)
same,GI50,[15],8.85 µM (inactive)
same,GI50,[16],5.07 µM (inactive)
same,GI50,[17],36.1 µM (inactive)
same,GI50,[18],3.73 µM (inactive)
same,GI50,[19],4.09 µM (inactive)
same,GI50,[20],1.21 µM (inactive)
same,GI50,[21],5.45 µM (inactive)
same,GI50,[22],5.46 µM (inactive)
same,GI50,[23],6.1 µM (inactive)
same,GI50,[24],3 µM (inactive)
same,GI50,[25],20 µM (inactive)
same,GI50,[26],3.78 µM (inactive)
same,GI50,[27],4.68 µM (inactive)
same,GI50,[28],1.08 µM (active)
same,GI50,[29],2.03 µM (inactive)
same,GI50,[30],7.73 µM (inactive)
same,GI50,[31],3.34 µM (inactive)
same,GI50,[32],4.07 µM (inactive)
same,GI50,[33],0.875 µM (active)
same,GI50,[34],7.67 µM (inactive)
same,GI50,[35],3.69 µM (inactive)
same,GI50,[36],4.34 µM (inactive)
same,GI50,[37],> 48.6 µM (inactive)
same,GI50,[38],4.56 µM (inactive)
same,GI50,[39],8.97 µM (inactive)
same,GI50,[40],1.32 µM (inactive)
same,GI50,[41],5.16 µM (inactive)
same,GI50,[42],2.89 µM (inactive)
same,GI50,[43],12.2 µM (inactive)
same,GI50,[44],3.36 µM (inactive)
same,GI50,[45],7.45 µM (inactive)
same,GI50,[46],11.7 µM (inactive)
same,GI50,[47],3.2 µM (inactive)
same,GI50,[48],13.6 µM (inactive)
same,GI50,[49],5.98 µM (inactive)
same,GI50,[50],6.07 µM (inactive)
same,GI50,[51],5.26 µM (inactive)
same,GI50,[52],1.91 µM (inactive)
same,GI50,[53],1.49 µM (inactive)
same,GI50,[54],2.35 µM (inactive)
same,GI50,[55],6.53 µM (inactive)
same,GI50,[56],4.07 µM (inactive)
same,GI50,[57],8.34 µM (inactive)
same,GI50,[58],3.82 µM (inactive)
same,GI50,[59],3.38 µM (inactive)
COc1ccc(C(=O)N(Cc2cccnc2)C(=S)N(Cc2cccnc2)C(=O)c2ccc(OC)cc2)cc1,GI50,[1],> 100 µM (inactive)
same,GI50,[2],> 100 µM (inactive)
same,GI50,[3],> 100 µM (inactive)
same,GI50,[4],> 100 µM (inactive)
same,GI50,[5],> 100 µM (inactive)
same,GI50,[6],86.9 µM (inactive)
same,GI50,[7],> 100 µM (inactive)
same,GI50,[8],> 100 µM (inactive)
same,GI50,[9],> 100 µM (inactive)
same,GI50,[10],> 100 µM (inactive)
same,GI50,[11],> 100 µM (inactive)
same,GI50,[12],> 100 µM (inactive)
same,GI50,[13],> 100 µM
same,GI50,[14],> 100 µM (inactive)
same,GI50,[15],35 µM (inactive)
same,GI50,[16],36.6 µM (inactive)
same,GI50,[17],> 100 µM (inactive)
same,GI50,[18],> 100 µM (inactive)
same,GI50,[20],> 100 µM (inactive)
same,GI50,[21],70.8 µM (inactive)
same,GI50,[22],> 100 µM (inactive)
same,GI50,[23],> 100 µM (inactive)
same,GI50,[24],> 100 µM (inactive)
same,GI50,[25],> 100 µM (inactive)
same,GI50,[26],62.8 µM (inactive)
same,GI50,[27],> 100 µM (inactive)
same,GI50,[28],> 100 µM (inactive)
same,GI50,[29],> 100 µM (inactive)
same,GI50,[30],> 100 µM (inactive)
same,GI50,[31],> 100 µM (inactive)
same,GI50,[32],> 100 µM (inactive)
same,GI50,[33],72.1 µM (inactive)
same,GI50,[34],75.2 µM (inactive)
same,GI50,[35],> 100 µM (inactive)
same,GI50,[36],37.4 µM (inactive)
same,GI50,[37],> 100 µM (inactive)
same,GI50,[38],66.8 µM (inactive)
same,GI50,[39],> 100 µM (inactive)
same,GI50,[40],> 100 µM (inactive)
same,GI50,[41],38.8 µM (inactive)
same,GI50,[42],52.1 µM (inactive)
same,GI50,[43],57.8 µM (inactive)
same,GI50,[44],> 100 µM (inactive)
same,GI50,[45],> 100 µM (inactive)
same,GI50,[46],> 100 µM (inactive)
same,GI50,[47],> 100 µM (inactive)
same,GI50,[48],67.3 µM (inactive)
same,GI50,[49],> 100 µM (inactive)
same,GI50,[50],40.3 µM (inactive)
same,GI50,[51],17.2 µM (inactive)
same,GI50,[52],> 100 µM (inactive)
same,GI50,[53],> 100 µM (inactive)
same,GI50,[54],> 100 µM (inactive)
same,GI50,[55],> 100 µM (inactive)
same,GI50,[56],55.2 µM (inactive)
same,GI50,[57],> 100 µM (inactive)
same,GI50,[58],> 100 µM (inactive)

# — ChEMBL document CHEMBL1201862, “PubChem BioAssay data set” (2004)
